PMC12700101 (2025)

Tests used:
[1] = system: Dopamine MAB Cy3–BHQ-1 (DNA, aptamer) ACGCCAGTTTGAAGGTTCGTTCGCAGGTGTGGAGTGACGT; experiment: fluorescence melting; details: 1x PBS, 2 mM MgCl2; derived from two Tm (49.5 ± 0.3, 52.7 ± 0.8); 50 µM dopamine, pH 8.0
[2] = system: Dopamine DBS BHQ-1/Cy3 (1:1) (DNA, aptamer) AAATACAACAAGAAAAAACTCTCGGGACGACGCCAGTTTGAAGGTTCGTTCGCAGGTGTGGAGTGACGTCGTCCC; experiment: fluorescence melting; details: 1x PBS, 2 mM MgCl2; pH 8.0; 50 µM dopamine; derived from two Tm (51.0, 50.6); displacement strand 1:1
[3] = system: Dopamine MAB BHQ-1–FAM (DNA, aptamer) ACGCCAGTTTGAAGGTTCGTTCGCAGGTGTGGAGTGACGT; experiment: fluorescence melting; details: 1x PBS, 2 mM MgCl2; derived from two Tm (40.0 ± 0.2, 37.3 ± 0.1); 50 µM dopamine, pH 8.0
[4] = system: Dopamine DBS FAM(+T)/BHQ-1 (DNA, aptamer, 6-FAM-modified dT (click, i6-FAMK) at 33) AAATACAACAAGAAAAAACTCTCGGGACGACGTCCAGTTTGAAGGTTCGTTCGCAGGTGTGGAGTGACGTCGTCCC …; experiment: fluorescence melting; details: 1x PBS, 2 mM MgCl2; pH 8.0; 50 µM dopamine; derived from two Tm (49.1, 48.9); displacement strand 1:4
[5] = system: Dopamine DBS FAM(+T)/BHQ-1 (int.) (DNA, aptamer, 6-FAM-modified dT (click, i6-FAMK) at 33) AAATACAACAAGAAAAAACTCTCGGGACGACGTCCAGTTTGAAGGTTCGTTCGCAGGTGTGGAGTGACGTCGTCCC; experiment: fluorescence melting; details: 1x PBS, 2 mM MgCl2; pH 8.0; 50 µM dopamine; derived from two Tm (49.1, 49.3); displacement strand 1:4
[6] = system: Dopamine DBS Cy3–BHQ-1 (Position 1/Adjacent) (DNA, aptamer) AAATACAACAAGAAAAAACTCTCGGGACGACGACCAGTTTGAAGGTTCGTTCGCAGGTGTGGAGTGACGTCGTCCC; experiment: fluorescence strand-displacement titration; details: 1x PBS, 2 mM MgCl2; apparent; pH 8.0, 25 °C; displaced CGTCGTCCCCTCTTCACATATCTATTTTTTCTTGTTGTATTT, 4 eq, 5'-BHQ-1
[7] = system: Dopamine DBS BHQ-1–Cy3 (DNA, aptamer) AAATACAACAAGAAAAAACTCTCGGGACGACGACCAGTTTGAAGGTTCGTTCGCAGGTGTGGAGTGACGTCGTCCC; experiment: fluorescence strand-displacement titration; details: 1x PBS, 2 mM MgCl2; apparent; pH 8.0, 25 °C; displaced 42-nt 5'-Cy3 strand, 1 eq
[8] = system: Dopamine DBS Cy3(+T)–BHQ-1 Terminal (DNA, aptamer) AAATACAACAAGAAAAAACTCTCGGGACGACGTACCAGTTTGAAGGTTCGTTCGCAGGTGTGGAGTGACGTCGTCCC; experiment: fluorescence strand-displacement titration; details: 1x PBS, 2 mM MgCl2; apparent; pH 8.0, 25 °C; displaced 43-nt strand, 5'-BHQ-1 plus T, 4 eq
[9] = system: Dopamine DBS Cy3(+T)–BHQ-1 Internal (DNA, aptamer) AAATACAACAAGAAAAAACTCTCGGGACGACGTACCAGTTTGAAGGTTCGTTCGCAGGTGTGGAGTGACGTCGTCCC; experiment: fluorescence strand-displacement titration; details: 1x PBS, 2 mM MgCl2; apparent; pH 8.0, 25 °C; displaced 42-nt strand, internal BHQ-1, 4 eq
[10] = system: Dopamine DBS FAM(+T)–BHQ-1 Terminal (DNA, aptamer, 6-FAM-dT (azide click) at 33) AAATACAACAAGAAAAAACTCTCGGGACGACGTACCAGTTTGAAGGTTCGTTCGCAGGTGTGGAGTGACGTCGTCCC; experiment: fluorescence strand-displacement titration; details: 1x PBS, 2 mM MgCl2; apparent; pH 8.0, 25 °C; displaced 43-nt strand, 5'-BHQ-1 plus T, 4 eq
[11] = system: Dopamine DBS FAM(+T)–BHQ-1 Internal (DNA, aptamer, 6-FAM-dT (azide click) at 33) AAATACAACAAGAAAAAACTCTCGGGACGACGTACCAGTTTGAAGGTTCGTTCGCAGGTGTGGAGTGACGTCGTCCC; experiment: fluorescence strand-displacement titration; details: 1x PBS, 2 mM MgCl2; apparent; pH 8.0, 25 °C; displaced 42-nt strand, internal BHQ-1, 4 eq
[12] = system: Dopamine DBS Cy3–BHQ-1 (Position 3) (DNA, aptamer) AAATACAACAAGAAAAAACTCTCGGGACGACGACCAGTTTGAAGGTTCGTTCGCAGGTGTGGAGTGACGTCGTCCC; experiment: fluorescence strand-displacement titration; details: 1x PBS, 2 mM MgCl2; apparent; pH 8.0, 25 °C; displaced 42-nt strand, internal BHQ-1 (position 3), 4 eq
[13] = system: Dopamine DBS Cy3/Cy5 – No (position 3) (DNA, aptamer) AAATACAACAAGAAAAAACTCTCGGGACGACGACCAGTTTGAAGGTTCGTTCGCAGGTGTGGAGTGACGTCGTCCC; experiment: fluorescence strand-displacement titration; details: 1x PBS, 2 mM MgCl2; apparent; pH 8.0, 25 °C; displaced 42-nt 3'-biotin strand without quencher; 565 nm readout
[14] = system: Dopamine MAB Cy3–BHQ-1 (DNA, aptamer) ACGCCAGTTTGAAGGTTCGTTCGCAGGTGTGGAGTGACGT; experiment: fluorescence quenching titration (molecular aptamer beacon); details: 1x PBS, 2 mM MgCl2; apparent; pH 8.0, 25 °C
[15] = system: Dopamine MAB BHQ-1–FAM (DNA, aptamer) ACGCCAGTTTGAAGGTTCGTTCGCAGGTGTGGAGTGACGT; experiment: as above; details: 1x PBS, 2 mM MgCl2; apparent; pH 8.0, 25 °C

- Tm [1]: 3.2 °C
- Tm [2]: -0.4 °C
- Tm [3]: -2.7 °C
- Tm [4]: -0.2 °C
- Tm [5]: 0.2 °C
- Kd [6]: 229.9 ± 22.0 µM
- Kd [7]: 95.6 ± 6.7 µM
- Kd [8]: 40.1 ± 5.0 µM
- Kd [9]: 17.3 ± 1.3 µM
- Kd [10]: 10.2 ± 1.0 µM
- Kd [11]: 7.5 ± 0.9 µM
- Kd [12]: 2.3 ± 0.3 µM
- Kd [13]: 9.9 ± 3.6 µM
- Kd [14]: 53.8 ± 8.8 µM
- Kd [15]: 5.3 ± 0.8 µM
Structure (SMILES): NCCc1ccc(O)c(O)c1
